Measurements as given in patent publication US10626094B2 (La Jolla Institute of Allergy & Immunology, priority 2014, dated 2020).

Molecular target: LMPTP-A (Low Molecular Weight Protein Tyrosine Phosphatase-A) enzyme (Homo sapiens (Human), UniProt P24666)
Experiment: LMPTP primary screening / LMPTP (OMFP) enzyme inhibition assay, fluorescence intensity
Format: biochemical
Details: LMPTP-A, OMFP substrate, method of Example 2; read-out: IC50
Procedure, shortened: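 Single-concentration screen, test compounds 20 μM final, […]. Enzyme (0.625 nM) and OMFP (400 μM) react 50 min at room temp, dark, in Bis-Tris buffer pH 6.0 containing DTT 1 mM and Triton X-100 0.01%. Read-out: fluorescence intensity.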

Chain of LMPTP-A (Low Molecular Weight Protein Tyrosine Phosphatase-A) enzyme (P24666 whole entry): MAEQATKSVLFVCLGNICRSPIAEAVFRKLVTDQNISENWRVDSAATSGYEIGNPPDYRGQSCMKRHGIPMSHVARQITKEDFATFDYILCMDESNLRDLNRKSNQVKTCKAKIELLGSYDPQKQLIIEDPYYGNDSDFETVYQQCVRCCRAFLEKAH

| IC50 [nM] | Molecule |
| --- | --- |
| > 5000 | COc1ccc(-c2cc(Nc3ccccc3CC3CCN(C)CC3)c3ccccc3n2)cc1 [Compound I37, [2-(4-methoxyphenyl)(4-quinolyl)]{2-[(1-methyl(4-piperidyl))methyl]phenyl}amine] |
| > 5000 | FC(F)(F)c1ccc(-c2cc(Nc3ccccc3CC3CCNCC3)c3ccccc3n2)c(C(F)(F)F)c1 [Compound I55, {2-[2,4-bis(trifluoromethyl)phenyl](4-quinolyl)}[2-(4-piperidylmethyl)phenyl]amine] |
| 801 to 5000 | CCN(C)C(=O)c1ccc(-c2cc(NCCCN3CCCCC3)c3ccccc3n2)cc1 [Compound I266] |
| > 5000 | CCN(CC)CCCNc1cc(-c2ccc(C(N)=O)cc2)nc2ccccc12 [Compound I218, 4-(4-{[3-(diethylamino)propyl]amino}-2-quinolyl)benzamide] |
| 801 to 5000 | COc1ccc(-c2cc(NCCCN3CCCCC3)c3ccccc3n2)c(OC)c1 [Compound I174] |
| 801 to 5000 | Fc1cc(F)c(-c2cc(NCCCN3CCCCC3)c3ccccc3n2)cc1F [Compound I86] |
| 801 to 5000 | CN(C)S(=O)(=O)c1ccc(C(F)(F)F)c(-c2cc(NCCCN3CCCCC3)c3ccccc3n2)c1 [Compound I106] |
| 801 to 5000 | c1ccc2c(NCCCN3CCCCC3)cc(-c3ccc(-c4nn[nH]n4)cc3)nc2c1 [Compound I205] |
| 801 to 5000 | Fc1ccc(-c2cc(NCCCN3CCCCC3)c3ccccc3n2)c(F)c1F [Compound I115] |
| 801 to 5000 | Fc1cc(Cl)ccc1-c1cc(Nc2ccc(CN3CCCCC3)cc2)c2ccccc2n1 [Compound I8, [2-(4-chloro-2-fluorophenyl)(4-quinolyl)][4-(piperidylmethyl)phenyl]amine] |
| 801 to 5000 | c1csc(-c2cc(NCCCN3CCCCC3)c3ccccc3n2)c1 [Compound G16, (3-Piperidin-1-yl-propyl)-(2-thiophen-2-yl-quinolin-4-yl)-amine] |
| 801 to 5000 | COc1ccc(-c2cc(NCc3ccccc3OC)c3ccccc3n2)cc1 [Compound G77, [2-(4-methoxyphenyl)(4-quinolyl)][(2-methoxyphenyl)methyl]amine] |
| 801 to 5000 | COc1ccc(-c2cc(Nc3cncc(C)n3)c3ccccc3n2)cc1 [Compound G73, [2-(4-methoxyphenyl)(4-quinolyl)](6-methylpyrazin-2-yl)amine] |
| 200 to 800 | O=C(NCCc1ccncc1)c1ccc(-c2cc(NCCCN3CCCCC3)c3ccccc3n2)cc1 [Compound I189] |
| > 5000 | NC(=O)c1ccc(-c2cc(NCCCN3CCCCCC3)c3ccccc3n2)cc1 [Compound I219, 4-{4-[(3-azaperhydroepinylpropyl)amino]-2-quinolyl}benzamide] |
| 801 to 5000 | Fc1cc(Cl)ccc1-c1cc(Nc2cccc(CN3CCCC3)c2)c2ccccc2n1 [Compound I10] |
| 200 to 800 | FC(F)(F)Oc1ccccc1-c1cc(NCCCN2CCCCC2)c2ccccc2n1 [Compound G2, (3-Piperidin-1-yl-propyl)-[2-(2-trifluoromethoxy-phenyl)-quinolin-4-yl]-amine] |
| 801 to 5000 | COc1ccc(-c2cc(Nc3cccc(CC#N)c3)c3ccccc3n2)cc1 [Compound I36, 2-(3-{[2-(4-methoxyphenyl)-4-quinolyl]amino}phenyl)ethanenitrile] |
| 801 to 5000 | COc1ccc(-c2cc(Nc3ccc(Cl)cc3)c3ccccc3n2)cc1 [Compound G40, (4-chlorophenyl)[2-(4-methoxyphenyl)(4-quinolyl)]amine] |
| 801 to 5000 | COc1ccc(Cl)cc1-c1cc(NCCCN2CCCCC2)c2ccccc2n1 [Compound I133] |
| > 5000 | CN(C)c1ccc(-c2cc(N(C)C)c3ccccc3n2)cc1 [Compound G11, [2-(4-Dimethylamino-phenyl)-quinolin-4-yl]-dimethyl-amine] |
| 801 to 5000 | FC(F)(F)Oc1cccc(-c2cc(NCCCN3CCCCC3)c3ccccc3n2)c1 [Compound G3, (3-Piperidin-1-yl-propyl)-[2-(3-trifluoromethoxy-phenyl)-quinolin-4-yl]-amine] |
| 801 to 5000 | COc1ccc(-c2cc(Nc3cccc(CN4CCN(C)CC4)c3)c3ccccc3n2)cc1 [Compound G60, [2-(4-methoxyphenyl)(4-quinolyl)]{3-[(4-methylpiperazinyl)methyl]phenyl}amine] |
| 200 to 800 | COc1ccc(-c2cc(Nc3cccc(CN4CCSCC4)c3)c3ccccc3n2)cc1 [Compound G56, [2-(4-methoxyphenyl)(4-quinolyl)][3-(1,4-thiazaperhydroin-4-ylmethyl)phenyl]amine] |
| > 5000 | Cn1ccc(-c2cc(NCCCN3CCCCC3)c3ccccc3n2)n1 [Compound I178] |
| > 5000 | CCOC(=O)c1ccc(Nc2cc(-c3ccc(OC)cc3)nc3ccccc23)cc1 [Compound G45, ethyl 4-{[2-(4-methoxyphenyl)-4-quinolyl]amino}benzoate] |
| 200 to 800 | O=C(NC1CCCC1)c1ccc(-c2cc(NCCCN3CCCCC3)c3ccccc3n2)cc1 [Compound I249] |
| 801 to 5000 | COc1ccc(-c2cc(NCc3cccc(OC)c3)c3ccccc3n2)cc1 [Compound G78, [2-(4-methoxyphenyl)(4-quinolyl)][(3-methoxyphenyl)methyl]amine] |

| IC50 [nM] | Molecule |
| --- | --- |
| > 5000 | NC(=O)c1ccc(-c2cc(N3CCC(Cc4ccc(N)cc4)CC3)c3ccccc3n2)cc1 [Compound I222, 4-(4-{4-[(4-aminophenyl)methyl]piperidyl}-2-quinolyl)benzamide] |
| 801 to 5000 | FC(F)(F)c1ccc(C(F)(F)F)c(-c2cc(Nc3cccc(CC4CCNCC4)c3)c3ccccc3n2)c1 [Compound I41, {2-[2,5-bis(trifluoromethyl)phenyl](4-quinolyl)}[3-(4-piperidylmethyl)phenyl]amine] |
| > 5000 | FC(F)(F)c1ccccc1-c1cc(Nc2ccccc2)c2ccccc2n1 [Compound G33, Phenyl-[2-(2-trifluoromethyl-phenyl)-quinolin-4-yl]-amine] |
| > 5000 | c1ccc(-c2nc(NCCN3CCOCC3)c3ccccc3n2)cc1 [Compound I184, (2-morpholin-4-ylethyl)(2-phenylquinazolin-4-yl)amine] |
| 801 to 5000 | COc1ccc(-c2cc(Nc3cncnc3)c3ccccc3n2)cc1 [Compound G66, [2-(4-methoxyphenyl)(4-quinolyl)]pyrimidin-5-ylamine] |
| 801 to 5000 | FC(F)(F)Oc1ccc(-c2cc(NCCCN3CCCCC3)c3ccccc3n2)cc1 [Compound G4, (3-Piperidin-1-yl-propyl)-[2-(4-trifluoromethoxy-phenyl)-quinolin-4-yl]-amine] |
| 801 to 5000 | COc1ccc(-c2cc(NCCCN3CCCCC3)c3c(n2)CCCC3)cc1 [Compound I208] |
| 801 to 5000 | Fc1cc(Cl)ccc1-c1cc(NCCCc2cccnc2)c2ccccc2n1 [Compound I204, [2-(4-chloro-2-fluorophenyl)(4-quinolyl)](3-(3-pyridyl)propyl)amine] |
| 801 to 5000 | NC(=O)c1ccc(-c2cc(Nc3cccc(CC4CCNCC4)c3)c3ccccc3n2)cc1 [Compound I3, 4-(4-{[3-(4-piperidylmethyl)phenyl]amino}-2-quinolyl)benzamide] |
| 801 to 5000 | c1c[nH]c(-c2cc(NCCCN3CCCCC3)c3ccccc3n2)c1 [Compound G22, (3-Piperidin-1-yl-propyl)-[2-(1H-pyrrol-2-yl)-quinolin-4-yl]-amine] |
| 801 to 5000 | Fc1c(Cl)cccc1-c1cc(NCCCN2CCCCC2)c2ccccc2n1 [Compound I238] |
| 801 to 5000 | Fc1cccc(-c2cc(NCCCN3CCCCC3)c3ccccc3n2)c1 [Compound G7, [2-(3-Fluoro-phenyl)-quinolin-4-yl]-(3-piperidin-1-yl-propyl)-amine] |
| 801 to 5000 | CCN1CCC(Cc2cccc(Nc3cc(-c4cccc(NC(C)=O)c4)nc4ccccc34)c2)CC1 [Compound I237, N-{3-[4-({3-[(1-ethyl-4-piperidyl)methyl]phenyl}amino)-2-quinolyl]phenyl}acetamide] |
| 200 to 800 | CSc1ccccc1-c1cc(NCCCN2CCCCC2)c2ccccc2n1 [Compound I158] |
| 801 to 5000 | Clc1cccc(-c2cc(Nc3cccc(CC4CCNCC4)c3)c3ccccc3n2)c1 [Compound I19, [2-(3-chlorophenyl)(4-quinolyl)][3-(4-piperidylmethyl)phenyl]amine] |
| 200 to 800 | c1ccc2c(NCCCN3CCCCC3)cc(-c3ccc4sccc4c3)nc2c1 [Compound I247] |
| 801 to 5000 | COc1ccc(-c2cc(NCCc3ccc(Cl)cc3)c3ccccc3n2)cc1 [Compound G84, [2-(4-chlorophenyl)ethyl][2-(4-methoxyphenyl)(4-quinolyl)]amine] |
| 801 to 5000 | CCNC(=O)c1ccc(-c2cc(NCCCN3CCCCC3)c3ccccc3n2)cc1 [Compound I62] |
| 801 to 5000 | c1csc(-c2cc(NCCCC3CCCNC3)c3ccccc3n2)c1 (centres unmarked) [Compound I144, (3-piperidylpropyl)(2-(2-thienyl)(4-quinolyl))amine] |
| 200 to 800 | O=C(Nc1ccc(-c2cc(NCCCN3CCCCC3)c3ccccc3n2)cc1)c1ccccc1 [Compound I57] |
| 200 to 800 | O=S(=O)(c1ccc(-c2cc(NCCCN3CCCCC3)c3ccccc3n2)cc1)N1CCOCC1 [Compound I236] |
| 200 to 800 | O=C(c1ccc(-c2cc(NCCCN3CCCCC3)c3ccccc3n2)cc1)N1CCOCC1 [Compound I234] |
| 801 to 5000 | O=C(NCCO)c1ccc(-c2cc(NCCCN3CCCCC3)c3ccccc3n2)cc1 [Compound I227] |
| > 5000 | CN(C)c1cc(-c2ccco2)nc2ccccc12 [Compound G13, (2-Furan-2-yl-quinolin-4-yl)-dimethyl-amine] |
| 801 to 5000 | c1ccc(-c2ccc(-c3cc(NCCCN4CCCCC4)c4ccccc4n3)cc2)cc1 [Compound I243] |
| 801 to 5000 | COc1ccc(-c2cc(Nc3cccc(CN4CCNCC4)c3)c3ccccc3n2)cc1 [Compound G59, [2-(4-methoxyphenyl)(4-quinolyl)][3-(piperazinylmethyl)phenyl]amine] |
| > 5000 | Cc1noc(C)c1-c1cc(NCCCN2CCCCC2)c2ccccc2n1 [Compound I112] |

| Molecule | IC50 [nM] |
| --- | --- |
| [2-(3-chloro-2-prop-2-enyloxy(4-pyridyl))(4-quinolyl)](3-piperidylpropyl)amine [Compound I91] | > 5000 |
